The results in this text go back to ChEMBL document CHEMBL5375952, “Discovery of Novel 8-Hydroxyquinoline Derivatives with Potent In Vitro and In Vivo Antifungal Activity” (J Med Chem, 2023).

Active and inactive are the calls of the source. The calls are words filed in the database; no cut-off is given here.

Test [1] relates to Candida albicans. As to the kind of experiment: Inhibition of hypha formation in Candida albicans SC5314 at 4 ug/ml incubated for 3 hrs by inverted phase contrast microscopy. The settings on record: dose 4.0 µg/ml. The class given is functional, organism-based.
Test [2] relates to Candida albicans. As to the kind of experiment: Synergistic antifungal activity against FLC-resistant Candida albicans 710506 assessed as fungal growth inhibition incubated for 48 hrs in presence of FLC by broth microdilution method. The class given is functional. A general note: In broth dilution the organism is exposed to a series of concentrations in liquid medium.
Test [3] has as its system Candida albicans. The test is described as follows: Synergistic antifungal activity against FLC-resistant Candida albicans 540 assessed as fungal growth inhibition incubated for 48 hrs in presence of FLC by broth microdilution method. The class given is functional.

For the molecule `CCN(CC)c1ccc(C(NC(=O)C(C)C)c2ccc3cccnc3c2O)cc1` (stereo not drawn), the inhibition entry in test [1] was “inactive”. The MIC was 0.031 µg/mL in test [2] and 0.016 µg/mL in test [3].

Broadly, the MIC is the lowest concentration that inhibits growth of the organism.
